The source of these data is PMC7831015, “Evaluation of the Hemocompatibility and Anticancer Potential of Poly(ε-Caprolactone) and Poly(3-Hydroxybutyrate) Microcarriers with Encapsulated Chrysin” (Pharmaceutics, 2021).

Data set [1] deals with MDA-MB-231 human breast cancer cells. As to the kind of experiment: MTT cell viability assay. Type of data set: cell-based. The settings on record: MDA-MB-231, 48 h, for MCs expressed as encapsulated chrysin content, read-out: IC50 (inhibitory concentration of chrysin for 50% viability). The procedure: Epithelial human breast cancer MDA-MB-231 cells were grown in Dulbecco’s Modified Eagle′s—Medium (DMEM) growth medium (pH 7.4) supplemented with 10% Fetal Bovine Serum (FBS) and 50 µg·mL^−1 gentamycin at 37 °C in a 5% humidified CO2 incubator.
In the present study, the cell viability of MDA-MB-231 breast cancer line was evaluated via the MTT assay. The method relies on the conversion of the yellow 3-(4,5-dimethylthiazol-2-yl)-2,5-diphenyl tetrazolium bromide (MTT) to purple formazan crystals. The reduction of MTT is catalyzed by the mitochondrial dehydrogenase enzyme and is therefore a measure for cell viability. MDA-MB-231 cells were exposed to free chrysin, ChrPCL/PVAMCs, or ChrPHB/PVAMCs in their exponential phase of growth. More specifically, in a 96-well plate (Corning, NY, USA), a number of 1 × 10^4 cells/well were seeded, and after 24 h (80% confluency) they were treated with different concentrations of ChrPCL/PVAMCs or ChrPHB/PVAMCs ranging between 0–400 µg·mL^−1. Due to the different loading capacity of chrysin in each type of MCs, free chrysin (dissolved in DMSO) was added accordingly, in equal concentrations (µM), with the encapsulated chrysin in the MCs, as estimated in Section 3.5. […] Finally, a Synergy HTX BioTEK plate reader (with a reference wavelength of 630 nm) was used to determine the absorbance measurement at 545 nm. […]
On the technique in general: Tetrazolium assays rely on reduction of a dye to a coloured formazan, in cell work by metabolically active cells.

The next data set concerns human blood samples. As to the kind of experiment: Blood profile analysis (hematological parameters). Type of data set: cell-based. The settings on record: human blood, 5, 80 and 200 µg·mL^−1, 37 °C, 1 h. The procedure:
(§1) Human blood samples were freshly collected from ten healthy volunteers and divided into tubes containing the anticoagulant agent ethylenediamine tetraacetic acid (EDTA), according to the protocols approved by the National Institute of Health and the Food and Drug Administration.
The blood profile analysis was performed using an automatic hematological analyzer Beckman Coulter ACT 5 Diff OV, (Beckman Coulter International S.A., Nyon, Switzerland) for the determination of different hematological parameters, such as red blood cells (RBCs) count ([…]), hemoglobin (HGB) g·dL^−1), hematocrit (HCT) (%), mean corpuscular volume (MCV) (in femtoliters, fl), mean corpuscular hemoglobin (MCH) (pg), mean corpuscular hemoglobin concentration (MCHC), red cell distribution width (RDW), white blood cells (WBCs) (10^9/L), neutrophils (NE) (%), lymphocytes (LY) (%), monocytes (MO) (%), eosinophils (EO) (%), basophils (BA) (%), and platelets (PLTs) (10^9/L), after exposure to free chrysin, ChrPCL/PVAMCs, or ChrPHB/PVAMCs, and without exposure to any agent. Briefly, the sample preparation was performed as follows: A 100 µL sample of whole blood was added to 900 µL of PBS. Then, either chrysin, ChrPCL/PVAMCs, or ChrPHB/PVAMCs were added to this diluted blood to achieve three concentrations: low, high, and very high (5, 80, and 200 µg·mL^−1, respectively). […]

A further data set is described as follows: Hemolysis assay. The format is cell-based, human. The settings on record: human, washed human red blood cells (RBC suspension), pH 7.2, 24 h, 37 °C, free chrysin solution in DMSO (5%), read-out: Percentage of Hemolysis. The procedure: as §1
(§2) The hemocompatibility of free chrysin and the produced micro-formulations was evaluated via the hemolysis assay performed using a biochemical analyzer Konelab 30, Thermo Scientific. The experimental procedure was as follows: Whole blood samples were centrifuged for 10 min at 1500 rpm to remove plasma. The obtained cell pellets were washed three times with sterile PBS (10 mM, pH 7.2) to separate the red blood cells (RBCs) from other blood components, such as the white blood cells, plasma proteins, and excess antibodies, centrifuged and finally re-suspended at 5 mL PBS. The hemolysis assay was performed by adding 100 µL of the RBC suspension to 900 µL of PBS, containing several concentrations (5, 20, 40, 60, 80, 100, 200, 300, 400, 500 µg·mL^−1) of free chrysin, ChrPCL/PVAMCs, or ChrPHB/PVAMCs. The positive (+) control sample of hemolysis used (100% hemolysis) consisted of 900 µL of ultrapure water and 100 µL of washed RBCs. The negative (−) control sample (0% hemolysis) consisted of 900 µL PBS and 100 µL of washed RBCs. PBS and PBS containing either free chrysin, ChrPCL/PVAMCs, or ChrPHB/PVAMCs were used as blank samples. All samples were incubated for 24 h at 37 °C, under agitation at 120 rpm. After incubation, they were centrifuged at 700 rpm for 5 min, and the absorbance of the supernatant was measured at 541 nm. The % hemolysis was calculated after subtracting the blank values, and by setting the control (+) value as 100% of hemolysis. The absorbance was transformed to hemolysis percentage using the following equation: Percentage of hemolysis (%)=ODSample − ODNegative control/ODPositive control − ODNegative control where OD stands for Optical density.

The test system of another data set is human RBCs. As to the kind of experiment: Hemolysis assay. The format is cell-based. The procedure: as §1, §2

As for `O=c1cc(-c2ccccc2)oc2cc(O)cc(O)c12` [chrysin, 5,7-dihydroxyflavone], the IC50 in data set [1] came out at 112 µM. Also, in the data set on human blood samples, the “PLT values compared to negative control” value is listed as “significant decrease” and the “hematological parameters (RBCs, HGB, HCT, MCV, MCH, MCHC, RDW, WBCs, NE, LY, MO, EO, BA) compared to negative control” value is reported as “did not display significant deviation”. Further, in “Hemolysis assay” (5 µg·mL^−1), the hemolysis at 24 h, 5 µg·mL^−1 worked out at 1.2%. The hemolysis at 24 h, 20 µg·mL^−1 in the data set “Hemolysis assay” (20 µg·mL^−1) was 2.1%. Besides, in “Hemolysis assay” (40 µg·mL^−1), the hemolysis at 24 h, 40 µg·mL^−1 amounted to 2.7%. For the same molecule, in “Hemolysis assay” (60 µg·mL^−1), the hemolysis at 24 h, 60 µg·mL^−1 came to 3%. In addition, the hemolysis at 24 h, 80 µg·mL^−1 in “Hemolysis assay” (80 µg·mL^−1) worked out at 3.5%. Besides, the hemolysis at 24 h, 100 µg·mL^−1 in the data set “Hemolysis assay” (100 µg·mL^−1) amounted to 6.8%. The hemolysis at 24 h, 200 µg·mL^−1 in the data set “Hemolysis assay” (200 µg·mL^−1) stood at 7%. Further, the hemolysis at 24 h, 300 µg·mL^−1 in “Hemolysis assay” (300 µg·mL^−1) is 7.3%. The hemolysis at 24 h, 400 µg·mL^−1 in the data set “Hemolysis assay” (400 µg·mL^−1) turned out to be 7.9%. In addition, in “Hemolysis assay” (500 µg·mL^−1), the hemolysis at 24 h, 500 µg·mL^−1 stood at 8.2%. For the same molecule, the “hemoglobin release from RBCs (micrographs)” value in the data set with human RBCs (500 µg·mL^−1) was “hemoglobin release from RBCs is obvious”. In addition, the hemolytic activity result in the data set on human RBCs (concentrations between 100 and 500 µg·mL^−1, diluted in 5% DMSO) is “greater than 5%”.
